Laboratory results published in ChEMBL document CHEMBL3045659, “Molecular docking studies on analogues of quercetin with d-alanine:d-alanine ligase of Helicobacter pylori” (Med Chem Res, 2013).
pIC50, pKd, pKi: −log10 of the molar value. Converted amounts (≈) assume the structure as drawn.

What was measured:
Escherichia coli [1] = assay: Antibacterial activity against Escherichia coli 25922 assessed as growth inhibition; type: functional
Helicobacter pylori [2] = assay: Antibacterial activity against Helicobacter pylori 43504 assessed as growth inhibition; type: functional
Escherichia coli [3] = assay: Antibacterial activity against Escherichia coli JM019 assessed as growth inhibition; type: functional
Helicobacter pylori [4] = assay: Antibacterial activity against Helicobacter pylori SS1 assessed as growth inhibition; type: functional
[5] = target: T1, D-alanine--D-alanine ligase (Helicobacter pylori (strain HPAG1), UniProt Q1CTD3); assay: Competitive inhibition of Helicobacter pylori Ddl using ATP as substrate
T1 sequence (Q1CTD3 whole entry): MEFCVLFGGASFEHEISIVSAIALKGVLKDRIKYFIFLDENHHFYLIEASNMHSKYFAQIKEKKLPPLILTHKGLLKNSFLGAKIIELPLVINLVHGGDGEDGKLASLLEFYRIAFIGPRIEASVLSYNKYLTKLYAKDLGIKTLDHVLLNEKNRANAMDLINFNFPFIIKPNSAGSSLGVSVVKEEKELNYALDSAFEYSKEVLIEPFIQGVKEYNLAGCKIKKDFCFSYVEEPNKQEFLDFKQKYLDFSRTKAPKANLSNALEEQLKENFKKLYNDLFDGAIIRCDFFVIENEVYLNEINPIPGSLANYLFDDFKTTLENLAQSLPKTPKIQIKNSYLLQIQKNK

[6] = target: D-alanine--D-alanine ligase B (Escherichia coli K-12, UniProt P07862); assay: Competitive inhibition of Escherichia coli DdlB using ATP as substrate
[7] = target: T1, D-alanine--D-alanine ligase; assay: Binding affinity to Helicobacter pylori Ddl by surface plasmon resonance biosensor technology

Structure (SMILES) | MIC (Escherichia coli [1]) | MIC (Helicobacter pylori [2]) | MIC (Escherichia coli [3]) | MIC (Helicobacter pylori [4]) | pIC50 [5] | pKi [5] | pIC50 [6] | pKd [7]
O=c1cc(-c2ccc(O)cc2)oc2cc(O)cc(O)c12 [APIGENIN] | > 200 µg/mL | 25 µg/mL (≈ 92.5 µM) | 200 µg/mL (≈ 740 µM) | 25 µg/mL (≈ 92.5 µM) | 3.88 | 4.51 | 3.79 | –
O=c1c(O)c(-c2ccc(O)c(O)c2)oc2cc(O)cc(O)c12 [QUERCETIN] | 300 µg/mL (≈ 993 µM) | 100 µg/mL (≈ 331 µM) | 300 µg/mL (≈ 993 µM) | 200 µg/mL (≈ 662 µM) | 4.31 | 5.37 | 4.70 | 4.89
